In BindingDB's records for doi:10.7270/Q2F769WQ (University of Pittsburgh, 2007):

target: T1, Dual specificity protein phosphatase 1 (Homo sapiens, UniProt P28562); assay: concentration-response of DUSP1 blockers – biochemical, in vitro, confirmation, dose response (AID 551); conditions: pH 7; 22 °C
T1 sequence (P28562 whole entry): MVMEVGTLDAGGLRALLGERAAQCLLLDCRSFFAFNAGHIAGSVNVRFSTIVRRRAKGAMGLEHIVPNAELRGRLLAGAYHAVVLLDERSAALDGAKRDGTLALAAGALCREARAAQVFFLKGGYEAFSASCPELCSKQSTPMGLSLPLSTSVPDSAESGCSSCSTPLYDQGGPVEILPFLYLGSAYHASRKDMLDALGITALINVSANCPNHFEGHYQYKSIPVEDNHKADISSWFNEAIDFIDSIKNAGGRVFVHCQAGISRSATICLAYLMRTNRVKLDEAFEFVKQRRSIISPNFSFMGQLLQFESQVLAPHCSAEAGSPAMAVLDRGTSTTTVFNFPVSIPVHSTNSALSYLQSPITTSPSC

Cc1nc2c(C(=O)NCCC3=CCCCC3)c[nH]n2c(=O)c1Cl [6-chloro-N-(2-cyclohex-1-en-1-ylethyl)-7-hydroxy-5-methylpyrazolo[1,5-a]pyrimidine-3-carboxamide] and CCCCCNC(=O)c1ccc2c(=O)[nH]c3c(C(=O)NCC4CCCO4)sc(=S)n3c2c1 (stereo not given) [5-oxo-N3-(2-oxolanylmethyl)-N8-pentyl-1-sulfanylidene-4H-thiazolo[3,4-a]quinazoline-3,8-dicarboxamide] are within 1.5-fold of each other in IC50: 31.1 µM for the first, 38.4 µM for the second.

CCn1c(=O)cc(SCC(=O)N2CCN(Cc3ccc4c(c3)OCO4)CC2)c2ccccc21 [1-ethyl-4-[[2-keto-2-(4-piperonylpiperazino)ethyl]thio]carbostyril] and O=c1c2cc(N3CCOCC3)ccc2[nH]c(=S)n1Cc1ccco1 [3-(2-furanylmethyl)-6-(4-morpholinyl)-2-sulfanylidene-1H-quinazolin-4-one] cannot be ordered by IC50: greater than 50 µM for the first, greater than 50 µM for the second.

With COC(=O)N(c1ccc(OC)cc1)P1(=S)OCCC(C)O1 (stereo not given) [MLS000043492] the IC50 was greater than 50 µM.
